Laboratory results: US20180214393A1, “METHODS FOR TREATING CANCER” (RADIUS PHARMACEUTICALS, INC., priority 2015, published 2018)
Where “and” joins values, the source holds several entries; their conditions need not be identical. Identical values can stand only once. Counter-ions that a name gives are not always drawn. Like-named read-outs stand apart in the source and are kept apart here.

What was measured:
[1] = target: T1, ER (Homo sapiens, UniProt P03372); experiment: FES-PET ER engagement in healthy postmenopausal female subjects; assay type: in vivo
T1 construct: from tissue; host or cells: uterus and pituitary of living human subjects
T1 sequence (P03372 1-595): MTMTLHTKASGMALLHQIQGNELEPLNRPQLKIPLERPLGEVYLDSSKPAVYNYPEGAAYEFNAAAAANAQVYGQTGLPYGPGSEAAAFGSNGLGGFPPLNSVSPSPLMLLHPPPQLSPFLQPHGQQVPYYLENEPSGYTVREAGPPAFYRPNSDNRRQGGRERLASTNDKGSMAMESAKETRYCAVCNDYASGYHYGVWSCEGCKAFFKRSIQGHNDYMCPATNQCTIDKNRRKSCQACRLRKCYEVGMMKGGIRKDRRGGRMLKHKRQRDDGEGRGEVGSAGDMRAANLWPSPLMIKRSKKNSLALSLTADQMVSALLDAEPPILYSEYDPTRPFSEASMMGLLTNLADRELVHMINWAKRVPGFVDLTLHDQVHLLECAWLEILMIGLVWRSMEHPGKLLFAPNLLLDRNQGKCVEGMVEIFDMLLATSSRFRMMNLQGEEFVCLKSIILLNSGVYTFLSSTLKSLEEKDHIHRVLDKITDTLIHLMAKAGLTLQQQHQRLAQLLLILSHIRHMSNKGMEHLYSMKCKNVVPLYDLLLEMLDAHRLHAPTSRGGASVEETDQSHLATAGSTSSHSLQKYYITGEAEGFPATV
Excerpt: The subjects were 40-75 years old with BMI of 18.0-30 kg/m^2. Subjects had intact uterus. Subjects having evidence of clinically relevant pathology, increased risk of stroke or of history venous thromboembolic events, or use of concomitant medication less than 14 days prior to admission to clinical research center (paracetamol allowed up to 3 days prior) were excluded.

[2] = Phase 1 dose escalation study in healthy postmenopausal women, plasma pharmacokinetics; assay type: in vivo, human; conditions: for AUC / Cmax / half-life / Tmax: female, human, plasma, oral; for AUC: read-out: AUC0-tau Geo-Mean; for Cmax: read-out: Cmax Geo-Mean
Experimental: The subjects were treated with placebo or at least one oral dose daily after a light breakfast for 7 days at dose levels of 200 mg, 500 mg, 750 mg and 1000 mg, respectively.
A series of blood samples were taken during the study for the analysis of RAD1901 in plasma. Blood samples of 5 mL each were taken via an indwelling IV catheter or by direct venipuncture into tubes containing K3-EDTA as anticoagulant. Steady state was achieved by day 5 of treatment. […] The median tv2 was between 37.5-42.3 hours (Table 8).

[3] = 500 mg PO once/day, Day 6, individual subjects 1-4, dihydrochloride

In the case of `CCNCCc1ccc(CN(CC)c2cc(OC)ccc2[C@@H]2CCc3cc(O)ccc3C2)cc1` [RAD1901, (6R)-6-(2-(N-(4-(2-(ethylamino)ethyl)benzyl)-N-ethylamino)-4-methoxyphenyl)-5,6,7,8-tetrahydronaphthalen-2-ol dihydrochloride], the “binding of labelled-estradiol to uterus and pituitary” value ([1]; 200 mg or 500 mg once/day p.o. 6 days) is reported as “significant reduction”, the “Mean Bone SUV” value [1, 3] is reported as 0.48 and 0.55 and 0.47 and 0.52 and the “Mean Muscle SUV” value [1, 3] is reported as 0.31 (2×) and 0.42 and 0.24. The “Mean Uterus SUV” value [1, 3] was 0.58 (2×) and 0.33 and 0.41, the “post dose FES-PET signal at uterus and pituitary” value ([1]; 500 mg p.o. once a day, six days) was “no noticeable signal of ER binding” and the steady state achieved ([2]; daily oral dosing) was ≤ 5 days. For the same molecule, the “plasma exposure vs dose” value ([2]; dose range tested 200-1000 mg) was “increased more than dose proportionally”, the AUC ([2]; 200 mg, Day 7) was 0.67 µg·h/mL and the Cmax ([2]; 200 mg, Day 7) was 0.0498 µg/mL. The half-life ([2]; 200 mg, Day 7, read-out: t1/2 Geo-Mean (converted)) was 38.3 h, the Tmax ([2]; 200 mg, Day 7, read-out: tmax Median) was 3 h and the AUC ([2]; 500 mg, Day 7) was 2.93 µg·h/mL. For the same molecule, the Cmax ([2]; 500 mg, Day 7) was 0.197 µg/mL, the half-life ([2]; 500 mg, Day 7, read-out: t1/2 Geo-Mean (converted)) was 37.5 h and the Tmax ([2]; 500 mg, Day 7, read-out: tmax Median) was 4 h. The AUC ([2]; 750 mg, Day 7) was 4.61 µg·h/mL, the Cmax ([2]; 750 mg, Day 7) was 0.322 µg/mL and the half-life ([2]; 750 mg, Day 7, read-out: t1/2 Geo-Mean (converted)) was 38.4 h. For the same molecule, the Tmax ([2]; 750 mg, Day 7, read-out: tmax Median) was 3 h, the AUC ([2]; 1000 mg, Day 7) was 8.29 µg·h/mL and the Cmax ([2]; 1000 mg, Day 7) was 0.54 µg/mL. The half-life ([2]; 1000 mg, Day 7, read-out: t1/2 Geo-Mean (converted)) was 42.3 h, the Tmax ([2]; 1000 mg, Day 7, read-out: tmax Median) was 4 h and the half-life ([2]; 200-1000 mg, Day 7, read-out: median t1/2 across dose groups) was 37.5 to 42.3 h. It also gave a Tmax ([2]; multiple dose administration, read-out: median tmax across dose groups) of 3 to 4 h.
